# Laboratory results as given in paper PMC9587990, “Molecular basis for isoform-selective inhibition of presenilin-1 by MRK-560” (Nature Communications, 2022).
# Where “and” joins values, the source holds several entries; their conditions need not be identical. Equal entries are not always repeated. Entries after “also recorded” stand apart in the source; their conditions may differ. Where two headings read alike, the source gives them in different places.
# Tests used:
# [1] = tested on: PS1 and PS2 with swapped loop-3; experiment: in vitro cleavage assay, AICD production by western blot; format: biochemical, human
# Experimental: Fig. 4 Thr281 and Leu282 of PS1 determine the isoform selectivity of MRK-560. a–c Individual and double residue swapping of Thr281 and Leu282 in PS1 with the corresponding Pro287 and Ile288 in PS2 alter their respective sensitives to MRK-560 accordingly. IC50 values for MRK-560 inhibition of the indicated PS1 (a) and PS2 (b) mutants were measured using the AlphaLISA assay that detects Aβ40 production. Please refer to Methods for experimental details. Data are presented as mean values ± SD. c Production of AICD by residue-swapped PS1 and PS2 mutants. The amount of AICD generated by the indicated variants in the presence of serial diluted MRK-560 is consistent with the corresponding IC50 shown in (a, b). […] The production of AICD was quantified by ImageJ. Red asterisks indicate the first concentration where the normalized production of AICD was reduced to less than 20%. Source data are provided as a Source Data file. […]
# All proteins used for the activity assay were sub-cloned, expressed and purified as described. Protein concentration was determined using the Bradford method. […] The cleaved products of these substrates were detected using a monoclonal antibody (1:1000 dilution, CW0299, CWBio) against the C-terminal Myc tag. Aβ40 production was detected using the AlphaLISA assay (PerkinElmer) as described. The IC50 values and the inhibition curves were calculated using Prism 8.0.
# [2] = biological target: T1, PS1 TL281-282PI (Homo sapiens, UniProt P49768, L282I/T281P); experiment: as above; format: biochemical; settings: 10 μM MRK-560, PS1 TL281-282PI
# T1 construct: made in house
# Experimental: (§1) Fig. 4 Thr281 and Leu282 of PS1 determine the isoform selectivity of MRK-560. a–c Individual and double residue swapping of Thr281 and Leu282 in PS1 with the corresponding Pro287 and Ile288 in PS2 alter their respective sensitives to MRK-560 accordingly. IC50 values for MRK-560 inhibition of the indicated PS1 (a) and PS2 (b) mutants were measured using the AlphaLISA assay that detects Aβ40 production. Please refer to Methods for experimental details. Data are presented as mean values ± SD. c Production of AICD by residue-swapped PS1 and PS2 mutants. The amount of AICD generated by the indicated variants in the presence of serial diluted MRK-560 is consistent with the corresponding IC50 shown in (a, b). […] The production of AICD was quantified by ImageJ. Red asterisks indicate the first concentration where the normalized production of AICD was reduced to less than 20%. Source data are provided as a Source Data file. Each cleavage assay was repeated three times. Error bars: SD.
# (§2) We also examined the inhibitory effect of MRK-560 on the production of AICD by the PS1/PS2 variants (Fig. 4c).
# (§3) All proteins used for the activity assay were sub-cloned, expressed and purified as described. Protein concentration was determined using the Bradford method. […] The cleavage reaction was conducted at 37 °C for 4 h. The cleaved products of these substrates were detected using a monoclonal antibody (1:1000 dilution, CW0299, CWBio) against the C-terminal Myc tag. Aβ40 production was detected using the AlphaLISA assay (PerkinElmer) as described. The IC50 values and the inhibition curves were calculated using Prism 8.0.
# [3] = biological target: T2, PS1 variant L282I (Homo sapiens, UniProt P49768, L282I); experiment: as above; format: biochemical; settings: 1 μM MRK-560, PS1 L282I
# T2 construct: made in house
# Experimental: as §1, §2, §3
# [4] = biological target: T3, PS1 variant T281P (Homo sapiens, UniProt P49768, T281P); experiment: as above; format: biochemical; settings: 1 μM MRK-560, PS1 T281P
# T3 construct: made in house
# Experimental: as §1, §2, §3
# [5] = biological target: T4, PS2(PI287-288TL) (Homo sapiens, UniProt P49810, I288L/P287T); experiment: as above; format: biochemical; settings: 200 nM MRK-560, PS2(PI287-288TL)
# T4 construct: made in house
# Experimental: as §1, §2, §3
# [6] = biological target: T5, PS2 PI287-288TL γ-secretase complex (Homo sapiens, UniProt P49810, I288L/P287T); experiment: in vitro cleavage assay, Aβ40 production by AlphaLISA; format: biochemical; settings: for remaining activity at 0.002 µM / remaining activity at 0.04 µM / remaining activity at 0.2 µM / remaining activity at 1 µM / remaining activity at 10 µM / remaining activity at 20 µM: 4 h
# T5 construct: made in house
# Experimental: (§4) In total we generated six variants, including single and double residue swapping of Thr281/Leu282 in PS1 with Pro287/Ile288 in PS2, respectively. MRK-560 response to the six PS1/PS2 mutant-containing complexes, each purified to homogeneity, was examined in the in vitro cleavage assay (Fig. 4). All proteins used for the activity assay were sub-cloned, expressed and purified as described. Protein concentration was determined using the Bradford method. […] The cleavage reaction was conducted at 37 °C for 4 h. The cleaved products of these substrates were detected using a monoclonal antibody (1:1000 dilution, CW0299, CWBio) against the C-terminal Myc tag. Aβ40 production was detected using the AlphaLISA assay (PerkinElmer) as described. The IC50 values and the inhibition curves were calculated using Prism 8.0. Statistical analysis of Aβ40 was performed using Prism 8 (GraphPad Software, San Diego, CA, USA). IC50 were determined by a four-parameter logistic regression. The statistical details can be found in Figs. 1, 4 and legends. Data are expressed as mean ± SD.
# [7] = biological target: T6, PS1 T281P γ-secretase complex (Homo sapiens, UniProt P49768, T281P); experiment: as above; format: biochemical; settings: for remaining activity at 0.002 µM / remaining activity at 0.01 µM / remaining activity at 0.04 µM / remaining activity at 0.2 µM / remaining activity at 1 µM / remaining activity at 10 µM: 4 h; for remaining activity at 0.002 µM / remaining activity at 0.01 µM / remaining activity at 0.04 µM / remaining activity at 0.2 µM / remaining activity at 1 µM / remaining activity at 10 µM / Caculated Aβ40 production / raw data from α-Lisa reading: PS1 T281P
# T6 construct: made in house
# Experimental: as §4
# [8] = tested on: Aβ production in the brain; parameters: method as in PMID 17099072, PMID 16443723; settings: cited from earlier work
# [9] = PS2 PI 287 288 TL, MRK-560 2 nM, replicates
# [10] = PS2 PI 287 288 TL, MRK-560 40 nM, replicates
# [11] = PS2 PI 287 288 TL, MRK-560 200 nM, replicates
# [12] = PS2 PI 287 288 TL, MRK-560 1 μM, replicates
# [13] = PS2 PI 287 288 TL, MRK-560 10 μM, replicates
# [14] = PS2 PI 287 288 TL, MRK-560 20 μM, replicates
structure (smiles),measurement,setting,value
"O=S(=O)(NC1CCC(c2cc(F)ccc2F)(S(=O)(=O)c2ccc(Cl)cc2)CC1)C(F)(F)F (stereo not drawn) [MRK-560, N-[cis-4-[(4-chlorophenyl)sulfonyl]-4-(2,5-difluorophenyl)cyclohexyl]-1,1,1-trifluoromethanesulfonamide]",effect of swapping loop-3 between PS1 and PS2 on sensitivity to MRK-560,[1],little influence on inhibition selectivity; also recorded: no detectable effect on the sensitivity
same,Generation of AICD,[2],could not be completely inhibited
same,Generation of AICD,[3],still detected
same,Generation of AICD,[4],still detected
same,Generation of AICD,[5],completely inhibited
same,remaining activity at 0.002 µM,"[6]; PS2 PI 287 288 TL, MRK-560 2 nM, mean of 3 replicates, read-out: Normalized production (control=1), Mean",88.4%
same,remaining activity at 0.002 µM,"[6]; PS2 PI 287 288 TL, MRK-560 2 nM, replicates, read-out: Normalized production (control=1)",89.8%
same,remaining activity at 0.04 µM,"[6]; PS2 PI 287 288 TL, MRK-560 40 nM, mean of 3 replicates, read-out: Normalized production (control=1), Mean",38.7%
same,remaining activity at 0.04 µM,"[6]; PS2 PI 287 288 TL, MRK-560 40 nM, replicates, read-out: Normalized production (control=1)",36.2%
same,remaining activity at 0.2 µM,"[6]; PS2 PI 287 288 TL, MRK-560 200 nM, mean of 3 replicates, read-out: Normalized production (control=1), Mean",6.34%
same,remaining activity at 0.2 µM,"[6]; PS2 PI 287 288 TL, MRK-560 200 nM, replicates, read-out: Normalized production (control=1)",6.66%
same,remaining activity at 1 µM,"[6]; PS2 PI 287 288 TL, MRK-560 1 μM, mean of 3 replicates, read-out: Normalized production (control=1), Mean",1.64%
same,remaining activity at 1 µM,"[6]; PS2 PI 287 288 TL, MRK-560 1 μM, replicates, read-out: Normalized production (control=1)",1.65%
same,remaining activity at 10 µM,"[6]; PS2 PI 287 288 TL, MRK-560 10 μM, mean of 3 replicates, read-out: Normalized production (control=1), Mean",0.86%
same,remaining activity at 10 µM,"[6]; PS2 PI 287 288 TL, MRK-560 10 μM, replicates, read-out: Normalized production (control=1)",0.88%
same,remaining activity at 20 µM,"[6]; PS2 PI 287 288 TL, MRK-560 20 μM, mean of 3 replicates, read-out: Normalized production (control=1), Mean",1.37%
same,remaining activity at 20 µM,"[6]; PS2 PI 287 288 TL, MRK-560 20 μM, replicates, read-out: Normalized production (control=1)",1.35%
same,Caculated Aβ40 production,[6]; [9],622.5323 and 598.5358 and 618.8332
same,raw data from α-Lisa reading,[6]; [9],89195 and 86274 and 88747
same,Caculated Aβ40 production,[6]; [10],251.4190 and 280.0544 and 273.5511
same,raw data from α-Lisa reading,[6]; [10],39722 and 43895 and 42953
same,Caculated Aβ40 production,[6]; [11],46.1689 and 42.1835 and 43.6058
same,raw data from α-Lisa reading,[6]; [11],7779 and 7121 and 7356
same,Caculated Aβ40 production,[6]; [12],11.4428 and 11.3299 and 11.2705
same,Normalized production (control=1),[6]; [12],0.0163
same,raw data from α-Lisa reading,[6]; [12],1994 and 1975 and 1965
same,Caculated Aβ40 production,[6]; [13],6.1091 and 5.7952 and 6.0025
same,raw data from α-Lisa reading,[6]; [13],1095 and 1042 and 1077
same,Caculated Aβ40 production,[6]; [14],9.3406 and 8.5277 and 10.7299
same,raw data from α-Lisa reading,[6]; [14],1640 and 1503 and 1874
same,IC50,"[6]; PS2 PI287-288TL, mean ± SD",25 ± 4 nM
same,IC50,[7],55 ± 6 nM
same,remaining activity at 0.002 µM,"[7]; MRK-560 2 nM, mean of 3 replicates, read-out: Normalized production (control=1), Mean",99.3%
same,remaining activity at 0.002 µM,"[7]; MRK-560 2 nM, replicates, read-out: Normalized production (control=1)",100%
same,remaining activity at 0.01 µM,"[7]; MRK-560 10 nM, mean of 3 replicates, read-out: Normalized production (control=1), Mean",92.8%
same,remaining activity at 0.01 µM,"[7]; MRK-560 10 nM, replicates, read-out: Normalized production (control=1)",94.3%
same,remaining activity at 0.04 µM,"[7]; MRK-560 40 nM, mean of 3 replicates, read-out: Normalized production (control=1), Mean",62.2%
same,remaining activity at 0.04 µM,"[7]; MRK-560 40 nM, replicates, read-out: Normalized production (control=1)",65.5%
same,remaining activity at 0.2 µM,"[7]; MRK-560 200 nM, mean of 3 replicates, read-out: Normalized production (control=1), Mean",10.6%
same,remaining activity at 0.2 µM,"[7]; MRK-560 200 nM, replicates, read-out: Normalized production (control=1)",11%
same,remaining activity at 1 µM,"[7]; MRK-560 1 μM, mean of 3 replicates, read-out: Normalized production (control=1), Mean",1.23%
same,remaining activity at 1 µM,"[7]; MRK-560 1 μM, replicates, read-out: Normalized production (control=1)",1.29%
same,remaining activity at 10 µM,"[7]; MRK-560 10 μM, mean of 3 replicates, read-out: Normalized production (control=1), Mean",0.61%
same,remaining activity at 10 µM,"[7]; MRK-560 10 μM, replicates, read-out: Normalized production (control=1)",0.59%
same,Caculated Aβ40 production,"[7]; MRK-560 2 nM, replicates",345.9981 and 336.9974 and 315.8225
same,raw data from α-Lisa reading,"[7]; MRK-560 2 nM, replicates",52003 and 49017 and 53262
same,Caculated Aβ40 production,"[7]; MRK-560 10 nM, replicates",309.2203 and 316.1610 and 308.6161
same,raw data from α-Lisa reading,"[7]; MRK-560 10 nM, replicates",49065 and 47993 and 48079
same,Caculated Aβ40 production,"[7]; MRK-560 40 nM, replicates",209.7683 and 219.6031 and 196.3837
same,raw data from α-Lisa reading,"[7]; MRK-560 40 nM, replicates",35008 and 31515 and 33534
same,Caculated Aβ40 production,"[7]; MRK-560 200 nM, replicates",35.0895 and 36.8617 and 34.7461
same,raw data from α-Lisa reading,"[7]; MRK-560 200 nM, replicates",6240 and 5889 and 5946
same,Caculated Aβ40 production,"[7]; MRK-560 1 μM, replicates",4.0253 and 4.3330 and 4.0016
same,raw data from α-Lisa reading,"[7]; MRK-560 1 μM, replicates",795 and 739 and 743
same,Caculated Aβ40 production,"[7]; MRK-560 10 μM, replicates",2.0149 and 1.9676 and 2.1390
same,raw data from α-Lisa reading,"[7]; MRK-560 10 μM, replicates",395 and 424 and 403
same,Aβ production in the brain,[8],reduced
